How the values were obtained:
[1] = Dynamic vapor sorption (DVS) of crystalline Forms A and B; format: physicochemical; conditions: 25° C., adsorption range 0% to 95% RH
Method: (§1) The crystalline forms provided can be additionally characterized by dynamic vapor sorption (DVS), wherein a sample is subjected to varying conditions of humidity and temperature, and the response of the sample is measured gravimetrically. The result of a DVS analysis particularly can be a dual curve providing sample weight percent as a function of relative humidity (RH) over time, a dual curve providing sample water content as a function of RH over time, a curve providing weight percent in relation to RH, or a curve providing water content in relation to RH. Equipment useful for measuring such data is known in the art, and any such equipment can be used to measure the compounds according to the present invention. In certain embodiments, DVS analysis can be carried out by scanning at a series of specific RH values. Thus, specific polymorphs according to the invention may be identified and described in relation to the representative graph and/or the approximate peaks obtained in DVS analysis, particularly scanning from 0% to 95% RH with a step interval of 5% or 10% RH.
DVS pattern for the crystalline Forms A and B was generated at 25° C. using a DVS Moisture Balance Flow System (Model Advantage) with the following conditions: sample size approximately 10 to 20 mg, drying at 25° C. for 60 minutes, adsorption range 0% to 95% RH, desorption range 95% to 0% RH, and step interval 5% RH. […]

[2] = Dynamic vapor sorption (DVS) of crystalline Forms C and D; format: physicochemical; conditions: for DVS rapid weight gain: in the range of 25-35% RH; for DVS low weight gain: in the range of 35-75% RH
Method: as §1
DVS data for the crystalline Forms C and D were collected on a Surface Measurement System DVS Intrinsic instrument. Samples were not dried prior to analysis. Sorption and desorption data were collected over a range from 5% to 95% RH at 10% RH increments under a nitrogen purge. The equilibrium criterion used for analysis was less than 0.0100% weight change in 5 minutes with a maximum equilibration time of 3 hours. Data were not corrected for the initial moisture content of the samples.

## CN(C)[C@@H]1C(O)=C(C(N)=O)C(=O)[C@@]2(O)C(O)=C3C(=O)c4c(O)c(NC(=O)[C@@H]5CCCN5C)cc(F)c4C[C@H]3C[C@@H]12 [Form A, (S)—N-((5aR,6aS,7S,10aS)-9-carbamoyl-7-(dimethylamino)-4-fluoro-1,8,10a,11-tetrahydroxy-10,12-dioxo-5,5a,6,6a,7,10,10a,12-octahydrotetracen-2-yl)-1-methylpyrrolidine-2-carboxamide]
[1]; at 75% RH
  DVS weight gain: about 19%
[1]; at 95% RH
  DVS weight gain: about 40%

## CN(C)[C@@H]1C(O)=C(C(N)=O)C(=O)[C@@]2(O)C(O)=C3C(=O)c4c(O)c(NC(=O)[C@@H]5CCCN5C)cc(F)c4C[C@H]3C[C@@H]12 [Form C, (S)—N-((5aR,6aS,7S,10aS)-9-carbamoyl-7-(dimethylamino)-4-fluoro-1,8,10a,11-tetrahydroxy-10,12-dioxo-5,5a,6,6a,7,10,10a,12-octahydrotetracen-2-yl)-1-methylpyrrolidine-2-carboxamide]
[2]; in the range of 5-25% RH
  DVS weight gain: about 2.7%
[2]
  DVS rapid weight gain: about 10%
  DVS low weight gain: about 3.7%
[2]; in the range of 35-45% RH
  DVS weight gain: about 6.1%

## CN(C)[C@@H]1C(O)=C(C(N)=O)C(=O)[C@@]2(O)C(O)=C3C(=O)c4c(O)c(NC(=O)[C@@H]5CCCN5C)cc(F)c4C[C@H]3C[C@@H]12 [Form D, (S)—N-((5aR,6aS,7S,10aS)-9-carbamoyl-7-(dimethylamino)-4-fluoro-1,8,10a,11-tetrahydroxy-10,12-dioxo-5,5a,6,6a,7,10,10a,12-octahydrotetracen-2-yl)-1-methylpyrrolidine-2-carboxamide]
[2]; between 5 and 95% RH
  DVS total weight gain: about 39.2%
[2]; in the range of 5-25% RH
  DVS weight gain: about 2.7%
[2]
  DVS rapid weight gain: about 10%
  DVS low weight gain: about 3.7%
